In PubChem BioAssay AID264 (DTP/NCI, 2004):
Where “and” joins values, the source holds several entries; their conditions need not be identical. Equal values may be shown once. Inconclusive results are not listed.

Test system: nude mice, LX-1 lung xenograft intrarenal, tumor weight T/C
Assay: NCI In Vivo Anticancer Drug Screen. Data for tumor model Human Lung LX-1 Xenograft (intrarenal inoculation) in NU/NU Swiss (nude) mice
Conditions: endpoint: mean tumor weight change, higher = larger tumour
In short: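 Tumor-bearing mice receive test compound or vehicle; tumor size is then measured in each group. The treated value is divided by the vehicle value to give T/C.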

[1] = dose: 25.0 mg/kg/injection, schedule: Q01DX010 (sc), vehicle: saline
[2] = dose: 150.0 mg/kg/injection, schedule: Q04DX003 (sc), vehicle: Klucel (hydroxypropylcellulose) (HPC)
[3] = dose: 300.0 mg/kg/injection, schedule: Q04DX003 (sc), vehicle: Klucel (hydroxypropylcellulose) (HPC)
[4] = dose: 600.0 mg/kg/injection, schedule: Q04DX003 (sc), vehicle: Klucel (hydroxypropylcellulose) (HPC)
[5] = dose: 50.0 mg/kg/injection, schedule: Q01DX010 (sc), vehicle: saline with Tween-80
[6] = dose: 100.0 mg/kg/injection, schedule: Q01DX010 (sc), vehicle: saline with Tween-80
[7] = dose: 400.0 mg/kg/injection, schedule: Q01DX010 (sc), vehicle: saline with Tween-80
[8] = dose: 25.0 mg/kg/injection, schedule: Q01DX010 (sc), vehicle: Klucel (hydroxypropylcellulose) (HPC)
[9] = dose: 300.0 mg/kg/injection, schedule: Q04DX003 (sc), vehicle: saline with Tween-80
[10] = dose: 300.0 mg/kg/injection, schedule: Q04DX003 (sc), vehicle: saline
[11] = dose: 600.0 mg/kg/injection, schedule: Q04DX003 (sc), vehicle: saline
[12] = dose: 1200.0 mg/kg/injection, schedule: Q04DX003 (sc), vehicle: saline
[13] = dose: 25.0 mg/kg/injection, schedule: Q01DX010 (sc), vehicle: saline with Tween-80

For `Oc1ccccc1C=NCCC[N-]CCCN=Cc1ccccc1O.[Co]`, the T/C (dose: 50.0 mg/kg/injection, schedule: Q01DX010 (sc), vehicle: suspension in saline) was 124 % of control and the T/C (dose: 100.0 mg/kg/injection, schedule: Q01DX010 (sc), vehicle: suspension in saline) was 79 % of control.

`Nc1cc2[nH]cnc2c(=O)[nH]1` was tested, and the T/C [1] was 25 % of control and the T/C (dose: 200.0 mg/kg/injection, schedule: Q01DX010 (sc), vehicle: saline) was 16 % of control and 18 % of control.

`CC(C)=CC(=O)OC1C2C(C)=CC(=O)C(O)C2(C)C2C3(O)OCC24C(CC(=O)OC14)C(C)C3O` (centres undefined) was tested, and the T/C (dose: 1.25 mg/kg/injection, schedule: Q04DX003 (sc), vehicle: distilled water + Tween-80) was 92 % of control and the T/C (dose: 2.5 mg/kg/injection, schedule: Q04DX003 (sc), vehicle: distilled water + Tween-80) was 90 % of control.

In the case of `O=C(CC(=O)C(F)(F)F)c1csc2ccccc12`, the T/C (dose: 75.0 mg/kg/injection, schedule: Q04DX003 (sc), vehicle: Klucel (hydroxypropylcellulose) (HPC)) is reported as 81 % of control, the T/C [2] is reported as 70 % of control and the T/C [3] is reported as 93 % of control. For the same compound, the T/C [4] was 87 % of control.

`CN1C(=O)NC(c2ccc(Cl)cc2)(c2ccc(Cl)cc2)C1=O` was tested, and the T/C [5] was 212 % of control, the T/C [6] was 191 % of control and the T/C [7] was 64 % of control.

In the case of `O=C(CCCN1CCC(O)(c2cccc(C(F)(F)F)c2)CC1)c1ccc(F)cc1`, the T/C (dose: 6.25 mg/kg/injection, schedule: Q01DX010 (sc), vehicle: Klucel (hydroxypropylcellulose) (HPC)) is reported as 52 % of control, the T/C (dose: 12.5 mg/kg/injection, schedule: Q01DX010 (sc), vehicle: Klucel (hydroxypropylcellulose) (HPC)) is reported as 96 % of control and the T/C [8] is reported as 60 % of control. The T/C (dose: 50.0 mg/kg/injection, schedule: Q01DX010 (sc), vehicle: Klucel (hydroxypropylcellulose) (HPC)) was 45 % of control and 54 % of control.

`CC(=O)O[C@H]1C(=O)[C@@]2(C)[C@H]([C@H](OC(=O)c3ccccc3)[C@]3(O)C[C@H](OC(=O)[C@H](O)[C@@H](NC(=O)c4ccccc4)c4ccccc4)C(C)=C1C3(C)C)[C@]1(OC(C)=O)CO[C@@H]1C[C@@H]2O` was tested, and the T/C [8] was 40 % of control and the T/C (dose: 400.0 mg/kg/injection, schedule: Q01DX010 (sc), vehicle: Klucel (hydroxypropylcellulose) (HPC)) was 14 % of control.

With `C[Si](C)(C)OSc1ccccc1[N+](=O)[O-]` the T/C [3] was 150 % of control, the T/C [4] was 151 % of control and the T/C (dose: 2400.0 mg/kg/injection, schedule: Q04DX003 (sc), vehicle: Klucel (hydroxypropylcellulose) (HPC)) was 123 % of control.

`O=C1C=CC(n2cc(F)c(=O)[nH]c2=O)O1` (centres undefined) was tested, and the T/C (dose: 25.0 mg/kg/injection, schedule: Q04DX003 (sc), vehicle: Klucel (hydroxypropylcellulose) (HPC)) was 57 % of control, the T/C (dose: 50.0 mg/kg/injection, schedule: Q04DX003 (sc), vehicle: Klucel (hydroxypropylcellulose) (HPC)) was 60 % of control and the T/C (dose: 100.0 mg/kg/injection, schedule: Q04DX003 (sc), vehicle: Klucel (hydroxypropylcellulose) (HPC)) was 46 % of control.

With `NCC1CCC(C(=O)O)CC1` (centres undefined) the T/C [9] was 167 % of control, the T/C (dose: 600.0 mg/kg/injection, schedule: Q04DX003 (sc), vehicle: saline with Tween-80) was 104 % of control and the T/C (dose: 1200.0 mg/kg/injection, schedule: Q04DX003 (sc), vehicle: saline with Tween-80) was 75 % of control. The T/C (dose: 2400.0 mg/kg/injection, schedule: Q04DX003 (sc), vehicle: saline with Tween-80) was 79 % of control.

For `O=C1NC2(CCCCC2)C(=O)N1CCN(CCCl)CCCl`, the T/C (dose: 4.0 mg/kg/injection, schedule: Q01DX010 (sc), vehicle: suspension in saline) was 524 % of control, the T/C (dose: 6.0 mg/kg/injection, schedule: Q01DX010 (sc), vehicle: saline) was 85 % of control and the T/C (dose: 6.0 mg/kg/injection, schedule: Q01DX010 (sc), vehicle: suspension in saline) was 39 % of control and 58 % of control. For the same compound, the T/C (dose: 8.0 mg/kg/injection, schedule: Q01DX010 (sc), vehicle: suspension in saline) was 244 % of control, the T/C (dose: 12.0 mg/kg/injection, schedule: Q01DX010 (sc), vehicle: saline) was 31 % of control and the T/C (dose: 16.0 mg/kg/injection, schedule: Q01DX010 (sc), vehicle: suspension in saline) was 115 % of control. For the same compound, the T/C (dose: 32.0 mg/kg/injection, schedule: Q01DX010 (sc), vehicle: suspension in saline) was 63 % of control.

With `NC(C(=O)O)c1ccc(CBr)cc1` (centres undefined) the T/C (dose: 300.0 mg/kg/injection, schedule: Q04DX003 (sc), vehicle: acid diluted with saline) was 96 % of control.

For `c1cc(-c2cc3ccc(C4=NCCN4)cc3[nH]2)ccc1C1=NCCN1`, the T/C (dose: 25.0 mg/kg/injection, schedule: Q04DX003 (sc), vehicle: saline) was 68 % of control, the T/C (dose: 50.0 mg/kg/injection, schedule: Q04DX003 (sc), vehicle: saline) was 67 % of control and the T/C (dose: 100.0 mg/kg/injection, schedule: Q04DX003 (sc), vehicle: saline) was 73 % of control.

`CCCCN(CCCC)C(Cl)=Nc1ccccc1` was tested, and the T/C (dose: 400.0 mg/kg/injection, schedule: Q04DX003 (sc), vehicle: other) was 116 % of control.

With `O=NN(CCCl)C(=O)NC1[C@H](O)CCC[C@@H]1O` (some centres undefined) the T/C (dose: 5.0 mg/kg/injection, schedule: Q04DX003 (sc), vehicle: saline) was 25 % of control and 30 % of control and 48 % of control.

For `C=C(OP(=O)(OC)OC)Sc1ccccc1C`, the T/C (dose: 100.0 micrograms/kg/injection, schedule: Q04DX003 (sc), vehicle: Klucel (hydroxypropylcellulose) (HPC)) was 68 % of control, the T/C (dose: 200.0 micrograms/kg/injection, schedule: Q04DX003 (sc), vehicle: Klucel (hydroxypropylcellulose) (HPC)) was 68 % of control and the T/C (dose: 400.0 micrograms/kg/injection, schedule: Q04DX003 (sc), vehicle: Klucel (hydroxypropylcellulose) (HPC)) was 67 % of control. For the same compound, the T/C (dose: 800.0 micrograms/kg/injection, schedule: Q04DX003 (sc), vehicle: Klucel (hydroxypropylcellulose) (HPC)) was 79 % of control.

With `COc1ccc2[nH]c3ccc4cc[n+](CCN5CCC(C6CCN(CC[n+]7ccc8ccc9[nH]c%10ccc(OC)cc%10c9c8c7)CC6)CC5)cc4c3c2c1` the T/C [2] was 88 % of control, the T/C [3] was 96 % of control and the T/C [4] was 83 % of control. For the same compound, the T/C (dose: 1200.0 mg/kg/injection, schedule: Q04DX003 (sc), vehicle: Klucel (hydroxypropylcellulose) (HPC)) was 93 % of control.

With `CN(C)C(=O)c1cccc(COc2ccc(N3C(N)=NC(N)=NC3(C)C)cc2Cl)c1` the T/C (dose: 6.25 mg/kg/injection, schedule: Q01DX010 (sc), vehicle: saline) was 85 % of control, the T/C (dose: 12.5 mg/kg/injection, schedule: Q01DX010 (sc), vehicle: saline) was 57 % of control and the T/C [1] was 25 % of control. The T/C (dose: 25.0 mg/kg/injection, schedule: Q01DX010 (sc), vehicle: suspension in saline) was 91 % of control.

`CCCCCCCCCCCCCCCCP(=O)(OCCOCCCCCC)OCCOCCCCCC` was tested, and the T/C (dose: 75.0 mg/kg/injection, schedule: Q04DX003 (sc), vehicle: saline) was 114 % of control, the T/C (dose: 150.0 mg/kg/injection, schedule: Q04DX003 (sc), vehicle: saline) was 91 % of control and the T/C [10] was 92 % of control.

With `CCCCCC[C@@H](O)C/C=C\CCCCCCCC(=O)OCCO` the T/C [10] was 69 % of control, the T/C [11] was 90 % of control and the T/C [12] was 28 % of control. For the same compound, the T/C (dose: 2400.0 mg/kg/injection, schedule: Q04DX003 (sc), vehicle: saline) was 50 % of control.

In the case of `C=C(C)[C@H]1CN[C@H](C(=O)O)[C@H]1CC(=O)O`, the T/C (dose: 10.0 mg/kg/injection, schedule: Q04DX003 (sc), vehicle: saline) is reported as 164 % of control and the T/C (dose: 20.0 mg/kg/injection, schedule: Q04DX003 (sc), vehicle: saline) is reported as 97 % of control.

For `O=C1NC(c2ccccc2)N=C2Oc3ccccc3C=C12` (centres undefined), the T/C (dose: 12.5 mg/kg/injection, schedule: Q01DX010 (sc), vehicle: saline with Tween-80) was 186 % of control, the T/C [13] was 123 % of control and the T/C [5] was 85 % of control. The T/C [6] was 105 % of control and the T/C (dose: 200.0 mg/kg/injection, schedule: Q01DX010 (sc), vehicle: saline with Tween-80) was 58 % of control.

For `C[C@H](N)C(=O)N[C@@H]1[C@H]2C(=C(O)C[C@@H](O)[C@@H]2O)C(=O)O[C@@H]1C`, the T/C [10] was 113 % of control, the T/C [11] was 160 % of control and the T/C (dose: 900.0 mg/kg/injection, schedule: Q04DX003 (sc), vehicle: saline) was 54 % of control. For the same compound, the T/C [12] was 92 % of control and 115 % of control and the T/C (dose: 1800.0 mg/kg/injection, schedule: Q04DX003 (sc), vehicle: saline) was 78 % of control.

With `Oc1ccc(SCc2ccc(NCc3ccccc3)cc2)cc1` the T/C [13] was 97 % of control, the T/C [5] was 44 % of control and the T/C [6] was 53 % of control. For the same compound, the T/C [7] was 190 % of control and the T/C (dose: 800.0 mg/kg/injection, schedule: Q01DX010 (sc), vehicle: saline with Tween-80) was 54 % of control.

In the case of `CN(C)C1C(=O)C(C(=O)NP(=O)(NCCCO)N(CCCl)CCCl)=C(O)C2(O)C(=O)C3=C(O)c4c(O)cccc4C(C)(O)C3CC12` (centres undefined), the T/C [9] is reported as 47 % of control.
